The results in this text go back to patent US12583849B2, “KCNT1 inhibitors and methods of use” (Praxis Precision Medicines, Inc., priority 2020, dated 2026).

For the test, the target named is T1, KCNT1 (KNa1.1, Slack) (Homo sapiens, UniProt Q5JUK3).
T1 construct: expressed in transfected cells; host or cells: HEK-TREX (tetracycline-inducible cell line)
T1 sequence (Q5JUK3 1-1230): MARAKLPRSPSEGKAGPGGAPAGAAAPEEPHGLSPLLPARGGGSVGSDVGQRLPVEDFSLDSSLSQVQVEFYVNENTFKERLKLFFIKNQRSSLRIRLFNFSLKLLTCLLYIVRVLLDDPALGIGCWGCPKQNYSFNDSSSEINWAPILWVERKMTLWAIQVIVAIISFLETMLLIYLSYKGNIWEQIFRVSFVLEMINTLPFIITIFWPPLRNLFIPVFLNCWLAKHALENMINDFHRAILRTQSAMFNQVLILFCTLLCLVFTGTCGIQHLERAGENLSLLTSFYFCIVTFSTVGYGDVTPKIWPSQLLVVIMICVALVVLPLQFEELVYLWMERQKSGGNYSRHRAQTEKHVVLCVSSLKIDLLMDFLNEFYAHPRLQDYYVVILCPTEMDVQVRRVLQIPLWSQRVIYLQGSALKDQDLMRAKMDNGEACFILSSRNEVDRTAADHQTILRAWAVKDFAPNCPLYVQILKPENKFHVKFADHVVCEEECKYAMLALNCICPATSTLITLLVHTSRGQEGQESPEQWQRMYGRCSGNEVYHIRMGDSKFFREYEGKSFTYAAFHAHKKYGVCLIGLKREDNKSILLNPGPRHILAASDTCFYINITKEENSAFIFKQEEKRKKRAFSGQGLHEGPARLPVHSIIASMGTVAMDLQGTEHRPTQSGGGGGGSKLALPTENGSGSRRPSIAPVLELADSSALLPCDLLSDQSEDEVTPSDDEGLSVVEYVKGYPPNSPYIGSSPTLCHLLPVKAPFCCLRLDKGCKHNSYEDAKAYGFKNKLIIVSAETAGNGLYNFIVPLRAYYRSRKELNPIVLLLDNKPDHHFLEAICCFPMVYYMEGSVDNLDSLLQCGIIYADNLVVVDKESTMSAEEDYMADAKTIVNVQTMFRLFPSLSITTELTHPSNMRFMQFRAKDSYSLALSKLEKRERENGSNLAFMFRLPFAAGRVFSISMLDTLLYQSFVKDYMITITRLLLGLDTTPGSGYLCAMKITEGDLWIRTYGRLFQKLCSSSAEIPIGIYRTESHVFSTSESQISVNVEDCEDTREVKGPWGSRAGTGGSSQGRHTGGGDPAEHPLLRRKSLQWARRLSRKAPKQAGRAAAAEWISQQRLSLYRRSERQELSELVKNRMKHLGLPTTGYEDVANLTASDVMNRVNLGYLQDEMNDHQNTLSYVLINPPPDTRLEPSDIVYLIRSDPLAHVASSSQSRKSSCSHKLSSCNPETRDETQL
As to the kind of experiment: KCNT1-WT-Basal Patch Clamp Assay. In kind it is cell-based. The conditions noted are these: tetracycline inducible cell line (HEK-TREX); SyncroPatch 384PE automated patch clamp, perforated patch mode, room temperature, step from -80 mV to 0 mV. Here is the method: KCNT1-WT-Basal—Patch Clamp Assay
Inhibition of KCNT1 (KNa1.1, Slack) was evaluated using a tetracycline inducible cell line (HEK-TREX). Currents were recorded using the SyncroPatch 384PE automated, patch clamp system. Pulse generation and data collection were performed with PatchController384 V1.3.0 and DataController384 V1.2.1 (Nanion Technologies). The access resistance and apparent membrane capacitance were estimated using built-in protocols. Current were recorded in perforated patch mode (10 μM escin) from a population of cells. The cells were lifted, triturated, and resuspended at 800,000 cells/ml. The cells were allowed to recover in the cell hotel prior to experimentation. Currents were recorded at room temperature. The external solution contained the following (in mM): NaCl 105, NMDG 40, KCl 4, MgCl2 1, CaCl2 5 and HEPES 10 (pH=7.4, Osmolarity ˜300 mOsm). The extracellular solution was used as the wash, reference and compound delivery solution. The internal solution contained the following (in mM): NaCl 70, KF 70, KCl 10, EGTA 5, HEPES 5 and Escin 0.01 (pH=7.2, Osmolarity ˜295 mOsm). Escin is made at a 5 mM stock in water, aliquoted, and stored at −20° C. The compound plate was created at 2× concentrated in the extracellular solution. The compound was diluted to 1:2 when added to the recording well. The amount of DMSO in the extracellular solution was held constant at the level used for the highest tested concentration. A holding potential of −80 mV with a 100 ms step to 0 mV was used. Mean current was measured during the step to 0 mV. […] The average mean current from 3 sweeps was calculated and the % inhibition of each compound was calculated. The % Inhibition as a function of the compound concentration was fit with a Hill equation to derive IC50, slope, min and max parameters. If KCNT1 inhibition was less than 50% at the highest tested concentration or if an IC50 could not be calculated, then a percent inhibition was reported in place of the IC50.
In this table, “A” indicates IC50 of less than or equal to 1 μM; “B” indicates inhibition of between 1 μM to 20 μM; and “C” indicates inhibition of greater than or equal to 20 μM.
Background: The patch-clamp technique gives a direct electrical read-out from membranes.

Broadly, the IC50 is the point on the concentration scale where inhibition reaches its midpoint.

The compound `C[C@H](NC(=O)C1CC2(CCC2)C1)c1nc(-c2ccnc(C3CC3)c2)no1` [Compound I-98, (S)—N-(1-(3-(2-cyclopropylpyridin-4-yl)-1,2,4-oxadiazol-5-yl)ethyl) spiro[3.3]heptane-2-carboxamide] gave an IC50 not above 1000 nM.

As to `C[C@H](NC(=O)C1CCN(C)CC1)c1nc(-c2ccnc(C(F)(F)F)c2)no1` [Compound I-65, (S)-1-methyl-N-(1-(3-(2-(trifluoromethyl)pyridin-4-yl)-1,2,4-oxadiazol-5-yl)ethyl)piperidine-4-carboxamide], the IC50 was not below 20000 nM.

`CCS(=O)(=O)c1ccc(C(=O)N[C@@H](C)c2nc(-c3ccnc(C4CC4)c3)no2)s1` [Compound I-93, (S)—N-(1-(3-(2-cyclopropylpyridin-4-yl)-1,2,4-oxadiazol-5-yl)ethyl)-5-(ethylsulfonyl)thiophene-2-carboxamide] gave an IC50 not above 1000 nM.

As to `CC(C)Oc1cc(-c2noc([C@H](C)NC(=O)N3CCCCC3)n2)ccn1` [II-2], the IC50 is not above 1000 nM.

Consider `C[C@H](NC(=O)c1cccc(OC(F)(F)F)c1)c1nc(-c2ccnc(C3CC3)c2)no1` [Compound I-103, (S)—N-(1-(3-(2-cyclopropylpyridin-4-yl)-1,2,4-oxadiazol-5-yl)ethyl)-3-(trifluoromethoxy)benzamide], for which the IC50 is not above 1000 nM.

As for `C[C@H](NC(=O)[C@H](C)c1ccccc1)c1nc(-c2ccnc(C(F)(F)F)c2)no1` [Compound I-17, (R)-2-phenyl-N—((S)-1-(3-(2-(trifluoromethyl)pyridin-4-yl)-1,2,4-oxadiazol-5-yl)ethyl)propanamide], the IC50 was not above 1000 nM.

Regarding `Cc1nc(C(F)(F)F)ccc1C(=O)NC(C)c1nc(-c2cccc(F)c2)no1` (stereo not shown) [Compound I-47, N-[1-[3-(3-fluorophenyl)-1,2,4-oxadiazol-5-yl]ethyl]-2-methyl-6-(trifluoromethyl)pyridine-3-carboxamide], the IC50 is 1000 to 20000 nM.

`C[C@H](NC(=O)c1cccc(S(C)(=O)=O)c1)c1nc(-c2ccnc(C3CC3)c2)no1` [Compound I-92, (S)—N-(1-(3-(2-cyclopropylpyridin-4-yl)-1,2,4-oxadiazol-5-yl)ethyl)-3-(methylsulfonyl)benzamide] returned an IC50 not above 1000 nM.

In the case of `CC(C)Oc1cc(-c2noc([C@H](C)NC(=O)NC(C)(C)C)n2)ccn1` [II-1], the IC50 was not above 1000 nM.

As for `CCn1nc(C)c(C(=O)N[C@@H](C)c2nc(-c3cccc(F)c3)no2)n1` [Compound I-40, (S)-2-ethyl-N-(1-(3-(3-fluorophenyl)-1,2,4-oxadiazol-5-yl)ethyl)-5-methyl-2H-1,2,3-triazole-4-carboxamide], the IC50 fell in the range of 1000 to 20000 nM.

For the compound `C[C@H](NC(=O)c1nccn1C1CCC1)c1nc(-c2ccnc(C3CC3)c2)no1` [Compound I-104, (S)-1-cyclobutyl-N-(1-(3-(2-cyclopropylpyridin-4-yl)-1,2,4-oxadiazol-5-yl)ethyl)-1H-imidazole-2-carboxamide], the IC50 fell in the range of 1000 to 20000 nM.

For `C[C@H](NC(=O)c1nc(-c2ccccc2)nn1C)c1nc(-c2cccc(F)c2)no1` [Compound I-38, (S)—N-(1-(3-(3-fluorophenyl)-1,2,4-oxadiazol-5-yl)ethyl)-1-methyl-3-phenyl-1H-1,2,4-triazole-5-carboxamide], the 50% inhibitory concentration (IC50) is not below 20000 nM.

As for `C[C@H](NC(=O)[C@@H](C)c1ccccc1)c1nc(-c2ccnc(C(F)(F)F)c2)no1` [Compound I-16, (S)-2-phenyl-N—((S)-1-(3-(2-(trifluoromethyl)pyridin-4-yl)-1,2,4-oxadiazol-5-yl)ethyl)propanamide], the IC50 is not above 1000 nM.

On to `C[C@H](NC(=O)C1CCCC12CC2)c1nc(-c2ccnc(C(F)(F)F)c2)no1` (stereo partly drawn) [Compound I-82, N-[(1S)-1-[3-[2-(trifluoromethyl)-4-pyridyl]-1,2,4-oxadiazol-5-yl]ethyl]spiro[2.4]heptane-7-carboxamide], for which the IC50 is not above 1000 nM.

`COc1cccc(C(=O)N[C@@H](C)c2nc(-c3ccnc(C4CC4)c3)no2)c1` [Compound I-79]: the IC50 was not above 1000 nM.

In turn, `C[C@H](NC(=O)C1CCCN(C)C1)c1nc(-c2ccnc(C(F)(F)F)c2)no1` (stereo partly drawn) [Compound I-68, 1-methyl-N—((S)-1-(3-(2-(trifluoromethyl)pyridin-4-yl)-1,2,4-oxadiazol-5-yl)ethyl)piperidine-3-carboxamide] registered an IC50 not below 20000 nM.

Regarding `C[C@H](NC(=O)CN(C)C)c1nc(-c2ccnc(C(F)(F)F)c2)no1` [III-1, (S)-2-(dimethylamino)-N-(1-(3-(2-(trifluoromethyl)pyridin-4-yl)-1,2,4-oxadiazol-5-yl)ethyl)acetamide], the IC50 was not below 20000 nM.

`C[C@H](NC(=O)N1CCc2ccccc2C1)c1nc(-c2ccnc(C(F)(F)F)c2)no1` [II-11]: the IC50 is not above 1000 nM.

`Cc1oncc1C(=O)N[C@@H](C)c1nc(-c2ccnc(C(F)(F)F)c2)no1` [Compound I-21, (S)-5-methyl-N-(1-(3-(2-(trifluoromethyl)pyridin-4-yl)-1,2,4-oxadiazol-5-yl)ethyl)isoxazole-4-carboxamide] had an IC50 of 1000 to 20000 nM.

Take `C[C@H](NC(=O)c1cccc(F)c1)c1nc(-c2ccnc(C3CC3)c2)no1` [Compound I-89, (S)—N-(1-(3-(2-cyclopropylpyridin-4-yl)-1,2,4-oxadiazol-5-yl)ethyl)-3-fluorobenzamide]: the IC50 was not above 1000 nM.

Compound `CC[C@H](NC(=O)C1CCCCC1)c1nc(-c2ccnc(C(F)(F)F)c2)no1` [Compound I-20, (S)—N-(1-(3-(2-(trifluoromethyl)pyridin-4-yl)-1,2,4-oxadiazol-5-yl)propyl)cyclohexanecarboxamide] displayed an IC50 not above 1000 nM.

For `C[C@H](NC(=O)CC(F)(F)F)c1nc(-c2ccnc(C(F)(F)F)c2)no1` [III-2, (S)-3,3,3-trifluoro-N-(1-(3-(2-(trifluoromethyl)pyridin-4-yl)-1,2,4-oxadiazol-5-yl)ethyl)propenamide], the IC50 lay in the range of 1000 to 20000 nM.

For `C[C@H](NC(=O)c1ccc(S(C)(=O)=O)s1)c1nc(-c2ccnc(C3CC3)c2)no1` [Compound I-70, (S)—N-(1-(3-(2-cyclopropylpyridin-4-yl)-1,2,4-oxadiazol-5-yl)ethyl)-5-(methylsulfonyl)thiophene-2-carboxamide], the IC50 was not above 1000 nM.

As to `C[C@H](NC(=O)c1ccc(Cl)cc1Cl)c1nc(-c2ccnc(C3CC3)c2)no1` [Compound I-94, (S)-2,4-dichloro-N-(1-(3-(2-cyclopropylpyridin-4-yl)-1,2,4-oxadiazol-5-yl)ethyl)benzamide], the IC50 is not above 1000 nM.

With `C[C@H](NC(=O)N(C)C(C)(C)C)c1nc(-c2ccnc(C3CC3)c2)no1` [II-9], the IC50 is not above 1000 nM.
